In publication PMC3733449 (Bioorganic & medicinal chemistry, 2013):
Read-outs that look alike come from different tables or passages of the source. Marks after values point to notes of the source that are not given here.

What was measured:
[1] = target: T1, human D3 receptors expressed in stably transfected HEK 293 cells (Homo sapiens, UniProt P35462); conditions: result in words, previously reported; cited from earlier work
[2] = published data; ref Leopoldo et al, 2002. [24]; cited from earlier work
[3] = target: human D3 dopamine receptor (Homo sapiens, UniProt P35462); assay: Competitive radioligand binding, D3 dopamine receptor; conditions: D2:D3 Ki value ratio
[4] = target: T1, human D3 receptors expressed in stably transfected HEK 293 cells; assay: Forskolin-dependent whole cell adenylyl cyclase inhibition assay, D3; format: cell-based; conditions: result in words

T1 sequence (P35462 whole entry): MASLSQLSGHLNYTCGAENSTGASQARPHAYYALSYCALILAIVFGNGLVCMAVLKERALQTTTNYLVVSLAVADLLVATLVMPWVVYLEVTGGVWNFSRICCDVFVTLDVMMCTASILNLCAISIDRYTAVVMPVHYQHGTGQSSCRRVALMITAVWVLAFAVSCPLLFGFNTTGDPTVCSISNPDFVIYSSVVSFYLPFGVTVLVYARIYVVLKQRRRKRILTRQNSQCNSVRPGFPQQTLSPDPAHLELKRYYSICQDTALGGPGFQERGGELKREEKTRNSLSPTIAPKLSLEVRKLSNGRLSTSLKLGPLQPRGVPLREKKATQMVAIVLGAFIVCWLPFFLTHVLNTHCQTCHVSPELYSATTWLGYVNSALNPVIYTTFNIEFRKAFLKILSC
human D3 dopamine receptor, sequence (P35462 whole entry): as above

Q: With COc1ccccc1N1CCN(CCCCNC(=O)c2ccc(CCF)cc2)CC1 [WC-44] as the compound, how does the “efficacy class at D3 receptors” value [1] read?
A: full agonist

Q: For O=C(NCCCCN1CCN(c2cccc(Cl)c2Cl)CC1)c1ccc2c(c1)Cc1ccccc1-2 [NGB-2904], which “Log P” value [2] is on record?
A: 6.94 ^h

Q: With COc1ccccc1N1CCCN(CCCCNC(=O)c2ccc(-c3ccsc3)cc2)CC1 [Compound 11a, N-(4-(4-(2-Methoxyphenyl)-1,4-diazepan-1-yl)butyl)-4-(thiophen-3-yl)benzamide] as the compound, how does the “D2/D3 (Ki ratio)” value [3] read?
A: > 100

Q: With COc1ccccc1N1CCCN(CCCCNC(=O)c2ccc(CCF)cc2)CC1 [Compound 11e, 4-(2-Fluoroethyl)-N-(4-(4-(2-methoxyphenyl)-1,4-diazepan-1-yl)butyl)benzamide] as the compound, how does the “efficacy class at D3 receptors” value [4] read?
A: strong partial agonist
